In general, MIC80 refers to an inhibitory concentration at the 80% level, which refers to growth in some studies and to a panel of isolates in others.

Values after ≈ are worked out from the molar mass of the structure shown. Marks after values point to notes of the source that are not given here.

The subject of one test is Candida albicans (ATCC no. 10231). Kind of test: MIC determination by broth microdilution (NCCLS), visual scoring. The format is cell-based. As to conditions: Candida albicans, ATCC10231, read-out: MIC80 C. albicans. How it is done: The antifungal activity of the 2,4,6-pyrimidinetrione analogs shown in Schemes 2-6 were evaluated in vitro using Candida albicans (ATCC no. 10231) and Candida glabrata (ATCC no 48435). All assays were done in accordance with NCCLS reference documents^29.
Master stock concentrations of all tested compounds were prepared to ensure that the maximum final concentration of DMSO was 1% or less. Subsequent 2-fold serial dilutions were made using sterile water to a final concentration of 1280-5.00 μg/ml. A final 10-fold dilution of each drug was made by aliquotting 0.1 mL of each drug dilution into 0.9 mL of fungal suspension in RPMI 1640 media with 10 mM HEPES buffer added (see methodology below), giving final concentrations tested in the range of 128-0.5 μg/ml.
Antifungal susceptibility studies and minimal inhibitory concentrations (MIC) values for Candida albicans (ATCC no. 10231) and Candida glabrata (ATCC no. 48435) were determined by the broth microdilution technique in accordance with NCCLS reference documents. Microdilution panels ranged from 0.5 to 128 μg/mL. All organisms were subcultured on Sabouraud agar and passaged to ensure purity and viability. The initiating inocula were prepared by picking 5-7 isolated colonies ˜1 mm in diameter from freshly prepared YM agar plates. Colonies were resuspended in sterile water, vortexed and the cell density was adjusted spectrophotometrically to the transmittance of a 0.5 McFarland standard at a wavelength of 530 nm, to yield a stock suspension of 1×10^6-5×10^6 cells/mL. The stock was allowed to hydrate for 30 minutes at room temperature. A working suspension was then made by diluting the stock 1:50 with RPMI 1640 media containing HEPES buffer. The working suspension was used for all assays. The plates were incubated at 35° C. for 48-72 hours in a humid atmosphere. Growth was scored visually. MIC values are defined as the lowest concentration of agent that prevents any discernible growth, ˜80% reduction of growth, as compared with drug-free control wells. All assays were run in parallel using either fluconazole or amphotericin B at the NCCLS recommended concentrations^29 as a drug control (Sigma-Aldrich).
In general terms: In broth dilution the organism is exposed to a series of concentrations in liquid medium.
Regarding `N/N=C/C1C(=O)NC(=O)NC1=O` [BA116, 5-[(E)-hydrazinylidenemethyl]pyrimidine-2,4,6-trione], the MIC80 came to 125 µg/mL (≈ 735 µM). Still for that read-out and setting: in the case of `CN1C(=O)C(/C=N/N)C(=O)N(C)C1=O` [BA117, 5-[(E)-hydrazinylidenemethyl]-1,3-dimethylpyrimidine-2,4,6-trione] it was 125 µg/mL (≈ 631 µM); in that of `C/C(=N\N)C1C(=O)NC(=O)NC1=O` [BA118, 5-[(1E)-1-hydrazinylideneethyl]pyrimidine-2,4,6-trione], greater than 125 µg/mL. As to `C/C(=N\N)C1C(=O)N(C)C(=O)N(C)C1=O` [BA119, 5-[(1E)-1-hydrazinylideneethyl]-1,3-dimethylpyrimidine-2,4,6-trione], the MIC80 is greater than 125 µg/mL.

As for `CN/N=C/C1C(=O)NC(=O)NC1=O` [BA120, 5-[(E)-(2-methylhydrazinylidene)methyl]pyrimidine-2,4,6-trione], the MIC80 was greater than 125 µg/mL. With `CN/N=C(\C)C1C(=O)NC(=O)NC1=O` [BA121, 5-[(1E)-1-(2-methylhydrazinylidene)ethyl]pyrimidine-2,4,6-trione], the MIC80 is greater than 125 µg/mL. Turning to `CN/N=C/C1C(=O)N(C)C(=O)N(C)C1=O` [BA122, 1,3-dimethyl-5-[(E)-(2-methylhydrazinylidene)methyl]pyrimidine-2,4,6-trione], the MIC80 stood at 62 µg/mL (≈ 292 µM). On the same count and under the same terms, the value for `CN/N=C(\C)C1C(=O)N(C)C(=O)N(C)C1=O` [BA123, 1,3-dimethyl-5-[(1E)-1-(2-methylhydrazinylidene)ethyl]pyrimidine-2,4,6(1H,3H,5H)-trione] was greater than 125 µg/mL.

The same test, now with this note: Table 2, 5-Arylidene-2,4,6-pyrimidinetriones.
As for `O=C1NC(=O)C(=CC=Cc2ccccc2)C(=O)N1` [BA42], the “MIC80 C. albicans” value was found to be 62 µg/mL (≈ 256 µM).

The same test, now with this note: Table 5, Schiff Bases of 5-acylpyrimidinetriones.
`COc1ccc(N=CC2C(=O)NC(=O)NC2=O)cc1` [BA97]: the “MIC80 C. albicans” value is reported as “— (none of the 5-acyl-2,4,6-pyrimidinetriones, 5-alkylated pyrimidinetriones or the 5,5-dialkylated pyrimidinetriones showed antifungal activity through 125 μg/mL)”.

For `COc1ccc(N=CC2C(=O)N(C)C(=O)N(C)C2=O)cc1` [BA98], the “MIC80 C. albicans” value is listed as “— (none of the 5-acyl-2,4,6-pyrimidinetriones, 5-alkylated pyrimidinetriones or the 5,5-dialkylated pyrimidinetriones showed antifungal activity through 125 μg/mL)”. Regarding `COc1ccc(N=C(C)C2C(=O)N(C)C(=O)N(C)C2=O)cc1` [BA99], the “MIC80 C. albicans” value is on record as “— (none of the 5-acyl-2,4,6-pyrimidinetriones, 5-alkylated pyrimidinetriones or the 5,5-dialkylated pyrimidinetriones showed antifungal activity through 125 μg/mL)”.

Turning to `COc1ccc(N=C(C)C2C(=O)NC(=O)NC2=O)cc1` [BA100], the “MIC80 C. albicans” value was “— (none of the 5-acyl-2,4,6-pyrimidinetriones, 5-alkylated pyrimidinetriones or the 5,5-dialkylated pyrimidinetriones showed antifungal activity through 125 μg/mL)”. Still for that read-out and setting: the value for `O=C1NC(=O)C(C=Nc2ccc([N+](=O)[O-])cc2)C(=O)N1` [BA101] was “— (none of the 5-acyl-2,4,6-pyrimidinetriones, 5-alkylated pyrimidinetriones or the 5,5-dialkylated pyrimidinetriones showed antifungal activity through 125 μg/mL)”; that for `CN1C(=O)C(C=Nc2ccc([N+](=O)[O-])cc2)C(=O)N(C)C1=O` [BA102] was “— (none of the 5-acyl-2,4,6-pyrimidinetriones, 5-alkylated pyrimidinetriones or the 5,5-dialkylated pyrimidinetriones showed antifungal activity through 125 μg/mL)”. On the same count and under the same terms, the value for `O=C1NC(=O)C(C=Nc2ccccn2)C(=O)N1` [BA103] was “— (none of the 5-acyl-2,4,6-pyrimidinetriones, 5-alkylated pyrimidinetriones or the 5,5-dialkylated pyrimidinetriones showed antifungal activity through 125 μg/mL)”; that for `CN1C(=O)C(C=Nc2ccccn2)C(=O)N(C)C1=O` [BA104] was “— (none of the 5-acyl-2,4,6-pyrimidinetriones, 5-alkylated pyrimidinetriones or the 5,5-dialkylated pyrimidinetriones showed antifungal activity through 125 μg/mL)”; that for `O=C1NC(=O)C(/C=N/c2ccc(-c3ccccc3)cc2)C(=O)N1` [BA105] was “— (none of the 5-acyl-2,4,6-pyrimidinetriones, 5-alkylated pyrimidinetriones or the 5,5-dialkylated pyrimidinetriones showed antifungal activity through 125 μg/mL)”. The same measure, in the same setting: in the case of `CN1C(=O)C(C=Nc2ccc(-c3ccccc3)cc2)C(=O)N(C)C1=O` [BA106] it was “— (none of the 5-acyl-2,4,6-pyrimidinetriones, 5-alkylated pyrimidinetriones or the 5,5-dialkylated pyrimidinetriones showed antifungal activity through 125 μg/mL)”; in that of `O=C1NC(=O)C(/C=N/c2nnc[nH]2)C(=O)N1` [BA107], “— (none of the 5-acyl-2,4,6-pyrimidinetriones, 5-alkylated pyrimidinetriones or the 5,5-dialkylated pyrimidinetriones showed antifungal activity through 125 μg/mL)”. For the compound `CN1C(=O)C(/C=N/c2nnc[nH]2)C(=O)N(C)C1=O` [BA108], the “MIC80 C. albicans” value was “— (none of the 5-acyl-2,4,6-pyrimidinetriones, 5-alkylated pyrimidinetriones or the 5,5-dialkylated pyrimidinetriones showed antifungal activity through 125 μg/mL)”. As to `O=C1NC(=O)C(/C=N/n2cnnc2)C(=O)N1` [BA109], the “MIC80 C. albicans” value is on record as “— (none of the 5-acyl-2,4,6-pyrimidinetriones, 5-alkylated pyrimidinetriones or the 5,5-dialkylated pyrimidinetriones showed antifungal activity through 125 μg/mL)”. Same read-out and setting: the value for `CN1C(=O)C(/C=N/n2cnnc2)C(=O)N(C)C1=O` [BA110] was “— (none of the 5-acyl-2,4,6-pyrimidinetriones, 5-alkylated pyrimidinetriones or the 5,5-dialkylated pyrimidinetriones showed antifungal activity through 125 μg/mL)”. For `O=C1NC(=O)C(/C=N/C2N=NN=N2)C(=O)N1` [BA111], the “MIC80 C. albicans” value was “— (none of the 5-acyl-2,4,6-pyrimidinetriones, 5-alkylated pyrimidinetriones or the 5,5-dialkylated pyrimidinetriones showed antifungal activity through 125 μg/mL)”.

Staying with this test, now noted: Table 8, N-Acylhydrazones of 5-Acylpyrimidinetriones.
For the compound `CN1C(=O)C(/C=N/NC(=O)c2ccccc2)C(=O)N(C)C1=O` [BA125], the “MIC80 C. albicans” value is “— (none of the 5-acyl-2,4,6-pyrimidinetriones, 5-alkylated pyrimidinetriones or the 5,5-dialkylated pyrimidinetriones showed antifungal activity through 125 μg/mL)”.

Regarding `C/C(=N\NC(=O)c1ccccc1)C1C(=O)NC(=O)NC1=O` [BA126], the “MIC80 C. albicans” value is given as “— (none of the 5-acyl-2,4,6-pyrimidinetriones, 5-alkylated pyrimidinetriones or the 5,5-dialkylated pyrimidinetriones showed antifungal activity through 125 μg/mL)”. Same read-out and setting: in the case of `CC(=NNC(=O)c1ccccc1)C1C(=O)N(C)C(=O)N(C)C1=O` [BA127] it was “— (none of the 5-acyl-2,4,6-pyrimidinetriones, 5-alkylated pyrimidinetriones or the 5,5-dialkylated pyrimidinetriones showed antifungal activity through 125 μg/mL)”; in that of `CC(=NNC(=O)c1ccc([N+](=O)[O-])cc1)C1C(=O)NC(=O)NC1=O` [BA130], “— (none of the 5-acyl-2,4,6-pyrimidinetriones, 5-alkylated pyrimidinetriones or the 5,5-dialkylated pyrimidinetriones showed antifungal activity through 125 μg/mL)”. Still for that read-out and setting: the value for `COc1ccc(C(=O)N/N=C/C2C(=O)NC(=O)NC2=O)cc1` [BA132] was “— (none of the 5-acyl-2,4,6-pyrimidinetriones, 5-alkylated pyrimidinetriones or the 5,5-dialkylated pyrimidinetriones showed antifungal activity through 125 μg/mL)”; that for `COc1ccc(C(=O)NN=C(C)C2C(=O)NC(=O)NC2=O)cc1` [BA134] was “— (none of the 5-acyl-2,4,6-pyrimidinetriones, 5-alkylated pyrimidinetriones or the 5,5-dialkylated pyrimidinetriones showed antifungal activity through 125 μg/mL)”. Same read-out and setting: the value for `COc1ccc(C(=O)NN=C(C)C2C(=O)N(C)C(=O)N(C)C2=O)cc1` [BA135] was “— (none of the 5-acyl-2,4,6-pyrimidinetriones, 5-alkylated pyrimidinetriones or the 5,5-dialkylated pyrimidinetriones showed antifungal activity through 125 μg/mL)”.

Still in this test, the particulars now being: Table 8, values marked * (no footnote in this table).
Consider `O=C1NC(=O)C(/C=N/NC(=O)c2ccc([N+](=O)[O-])cc2)C(=O)N1` [BA128], for which the “MIC80 C. albicans” value was 62* μg/mL. Still for that read-out and setting: the value for `CN1C(=O)C(/C=N/NC(=O)c2ccc([N+](=O)[O-])cc2)C(=O)N(C)C1=O` [BA129] was 62* μg/mL. Same read-out and setting: in the case of `COc1ccc(C(=O)N/N=C/C2C(=O)N(C)C(=O)N(C)C2=O)cc1` [BA133] it was 62* μg/mL.

The test is the same for the next values; noted with them: Table 9, Benzenesuifonohydrazones of 5-Acylpyrimidinetrione.
In the case of `C/C(=N\NS(=O)(=O)c1ccc(C)cc1)C1C(=O)NC(=O)NC1=O` [BA114], the “MIC80 C. albicans” value is “— (none of the 5-acyl-2,4,6-pyrimidinetriones, 5-alkylated pyrimidinetriones or the 5,5-dialkylated pyrimidinetriones showed antifungal activity through 125 μg/mL)”. In the case of `Cc1ccc(S(=O)(=O)N/N=C/C2C(=O)N(C)C(=O)N(C)C2=O)cc1` [BA115], the “MIC80 C. albicans” value was “— (none of the 5-acyl-2,4,6-pyrimidinetriones, 5-alkylated pyrimidinetriones or the 5,5-dialkylated pyrimidinetriones showed antifungal activity through 125 μg/mL)”.

For the compound `O=C1NC(=O)C(C=NNS(=O)(=O)c2ccccc2)C(=O)N1` [BA136], the “MIC80 C. albicans” value is “— (none of the 5-acyl-2,4,6-pyrimidinetriones, 5-alkylated pyrimidinetriones or the 5,5-dialkylated pyrimidinetriones showed antifungal activity through 125 μg/mL)”.

Still in this test, the particulars now being: Table 9, value marked ** (footnote not given).
Consider `Cc1ccc(S(=O)(=O)N/N=C/C2C(=O)NC(=O)NC2=O)cc1` [BA113], for which the “MIC80 C. albicans” value is 16** μg/mL.
